From PubChem BioAssay AID1963425 (Molecular Pharmacology Branch, DTP, NCI, 2024)

Test system: 323965-272-R-J2-PDC complex spheroid growth, % test/control
Test: Anticancer human tumor 323965-272-R-J2-PDC patient-derived pancreatic carcinoma cell line growth inhibition [Asc]
Details: for IC50: curve of first compound; for viability, T/C: stronger effect = lower value
Procedure, shortened: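 Complex spheroids combining tumor cells with HUVEC endothelial cells and human MSCs, at 37 degrees C, 5% CO2; agents tested alone or combined, half-log dilutions from at or near clinical Cmax, or 10 microM if Cmax unknown.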

[1] = second compound 0.00316 µM, first compound 0.0316 µM
[2] = second compound 0.00316 µM, first compound 0.1 µM
[3] = second compound 0.00316 µM, first compound 0.316 µM
[4] = second compound 0.00316 µM, first compound 1 µM
[5] = second compound 0.01 µM, first compound 0.0316 µM
[6] = second compound 0.01 µM, first compound 0.1 µM
[7] = second compound 0.01 µM, first compound 0.316 µM
[8] = second compound 0.01 µM, first compound 1 µM
[9] = second compound 0.0316 µM, first compound 0.0316 µM
[10] = second compound 0.0316 µM, first compound 0.1 µM
[11] = second compound 0.0316 µM, first compound 0.316 µM
[12] = second compound 0.0316 µM, first compound 1 µM
[13] = second compound 0.1 µM, first compound 0.0316 µM
[14] = second compound 0.1 µM, first compound 0.1 µM
[15] = second compound 0.1 µM, first compound 0.316 µM
[16] = second compound 0.1 µM, first compound 1 µM
[17] = second compound 0.316 µM, first compound 0.0316 µM
[18] = second compound 0.316 µM, first compound 0.1 µM
[19] = second compound 0.316 µM, first compound 0.316 µM
[20] = second compound 0.316 µM, first compound 1 µM
[21] = second compound 1 µM, first compound 0.0316 µM
[22] = second compound 1 µM, first compound 0.1 µM
[23] = second compound 1 µM, first compound 0.316 µM
[24] = second compound 1 µM, first compound 1 µM
[25] = second compound 0.00316 µM, first compound 0.00316 µM
[26] = second compound 0.00316 µM, first compound 0.01 µM
[27] = second compound 0.01 µM, first compound 0.00316 µM
[28] = second compound 0.01 µM, first compound 0.01 µM
[29] = second compound 0.0316 µM, first compound 0.00316 µM
[30] = second compound 0.0316 µM, first compound 0.01 µM
[31] = second compound 0.1 µM, first compound 0.00316 µM
[32] = second compound 0.1 µM, first compound 0.01 µM
[33] = second compound 0.316 µM, first compound 0.00316 µM
[34] = second compound 0.316 µM, first compound 0.01 µM
[35] = second compound 1 µM, first compound 0.00316 µM
[36] = second compound 1 µM, first compound 0.01 µM
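Further: compound exposure lasted 7 days starting three days after spheroid seeding.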
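Wherever viability, T/C is given: 100% = DMSO vehicle control wells with viability set relative to vehicle.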

C=CC(=O)N1CCN(c2nc(=O)n(-c3c(C)ccnc3C(C)C)c3nc(-c4c(O)cccc4F)c(F)cc23)C(C)C1 (stereo unspecified) + CNC(C)C(=O)NC1CN(S(=O)(=O)c2cccc(S(=O)(=O)N3CCC4CCC(C(=O)NC(c5ccccc5)c5ccccc5)N4C(=O)C(NC(=O)C(C)NC)C3)c2)CCC2CCC(C(=O)NC(c3ccccc3)c3ccccc3)N2C1=O
IC50 (second compound 0.00316 µM): > 10000 nM | IC50 (second compound 0.01 µM): > 10000 nM | IC50 (second compound 0.0316 µM): > 10000 nM | IC50 (second compound 0.1 µM): > 10000 nM | IC50 (second compound 0.316 µM): > 10000 nM | IC50 (second compound 1 µM): > 10000 nM | viability, T/C [1]: 67.7% | viability, T/C [2]: 59.1% | viability, T/C [3]: 61.1% | viability, T/C [4]: 57.4% | viability, T/C (second compound 0.00316 µM, first compound 3.16 µM): 66.1% | viability, T/C (second compound 0.00316 µM, first compound 10 µM): 60.2% | viability, T/C [5]: 66.5% | viability, T/C [6]: 70.6% | viability, T/C [7]: 56.9% | viability, T/C [8]: 69.8% | viability, T/C (second compound 0.01 µM, first compound 3.16 µM): 55.9% | viability, T/C (second compound 0.01 µM, first compound 10 µM): 70.3% | viability, T/C [9]: 83.4% | viability, T/C [10]: 67.7% | viability, T/C [11]: 62.4% | viability, T/C [12]: 60.6% | viability, T/C (second compound 0.0316 µM, first compound 3.16 µM): 62% | viability, T/C (second compound 0.0316 µM, first compound 10 µM): 67.2% | viability, T/C [13]: 76.3% | viability, T/C [14]: 60.5% | viability, T/C [15]: 66.7% | viability, T/C [16]: 58.8% | viability, T/C (second compound 0.1 µM, first compound 3.16 µM): 63.9% | viability, T/C (second compound 0.1 µM, first compound 10 µM): 61.3% | viability, T/C [17]: 64.3% | viability, T/C [18]: 65.8% | viability, T/C [19]: 56.9% | viability, T/C [20]: 54.9% | viability, T/C (second compound 0.316 µM, first compound 3.16 µM): 63.2% | viability, T/C (second compound 0.316 µM, first compound 10 µM): 64.3% | viability, T/C [21]: 60.1% | viability, T/C [22]: 61.1% | viability, T/C [23]: 57.9% | viability, T/C [24]: 60.3% | viability, T/C (second compound 1 µM, first compound 3.16 µM): 59% | viability, T/C (second compound 1 µM, first compound 10 µM): 56.6%

COc1c(OCCCN2CCOCC2)ccc2c3n(c(=NC(=O)c4cnc(N)nc4)nc12)CCN3 + CNC(C)C(=O)NC1CN(S(=O)(=O)c2cccc(S(=O)(=O)N3CCC4CCC(C(=O)NC(c5ccccc5)c5ccccc5)N4C(=O)C(NC(=O)C(C)NC)C3)c2)CCC2CCC(C(=O)NC(c3ccccc3)c3ccccc3)N2C1=O
IC50 (second compound 0.00316 µM): 129 nM | IC50 (second compound 0.01 µM): 99.2 nM | IC50 (second compound 0.0316 µM): 92.6 nM | IC50 (second compound 0.1 µM): 78.4 nM | IC50 (second compound 0.316 µM): 102 nM | IC50 (second compound 1 µM): 70.5 nM | viability, T/C [25]: 97.2% | viability, T/C [26]: 81.3% | viability, T/C [1]: 69.5% | viability, T/C [2]: 54.6% | viability, T/C [3]: 36.9% | viability, T/C [4]: 32.4% | viability, T/C [27]: 91.6% | viability, T/C [28]: 88.9% | viability, T/C [5]: 60.1% | viability, T/C [6]: 52.8% | viability, T/C [7]: 36.8% | viability, T/C [8]: 26% | viability, T/C [29]: 94.7% | viability, T/C [30]: 84.1% | viability, T/C [9]: 66.4% | viability, T/C [10]: 48.6% | viability, T/C [11]: 37.6% | viability, T/C [12]: 31.3% | viability, T/C [31]: 89.5% | viability, T/C [32]: 80.1% | viability, T/C [13]: 62.9% | viability, T/C [14]: 49.3% | viability, T/C [15]: 29.9% | viability, T/C [16]: 29.4% | viability, T/C [33]: 84.9% | viability, T/C [34]: 85.4% | viability, T/C [17]: 73.3% | viability, T/C [18]: 49.7% | viability, T/C [19]: 36.8% | viability, T/C [20]: 30.3% | viability, T/C [35]: 85.2% | viability, T/C [36]: 76.3% | viability, T/C [21]: 60.5% | viability, T/C [22]: 43.4% | viability, T/C [23]: 35.8% | viability, T/C [24]: 24.3%

NC1CCC(NC2CC2c2ccccc2)CC1 (stereo unspecified) + CNC(C)C(=O)NC1CN(S(=O)(=O)c2cccc(S(=O)(=O)N3CCC4CCC(C(=O)NC(c5ccccc5)c5ccccc5)N4C(=O)C(NC(=O)C(C)NC)C3)c2)CCC2CCC(C(=O)NC(c3ccccc3)c3ccccc3)N2C1=O
IC50 (second compound 0.00316 µM): > 100 nM | IC50 (second compound 0.01 µM): > 100 nM | IC50 (second compound 0.0316 µM): > 100 nM | IC50 (second compound 0.1 µM): > 100 nM | IC50 (second compound 0.316 µM): > 100 nM | IC50 (second compound 1 µM): > 100 nM | viability, T/C (second compound 0.00316 µM, first compound 0.000316 µM): 96.2% | viability, T/C (second compound 0.00316 µM, first compound 0.001 µM): 91.7% | viability, T/C [25]: 104% | viability, T/C [26]: 97% | viability, T/C [1]: 97.6% | viability, T/C [2]: 94.2% | viability, T/C (second compound 0.01 µM, first compound 0.000316 µM): 97.6% | viability, T/C (second compound 0.01 µM, first compound 0.001 µM): 86.7% | viability, T/C [27]: 95.9% | viability, T/C [28]: 101% | viability, T/C [5]: 99.3% | viability, T/C [6]: 90.5% | viability, T/C (second compound 0.0316 µM, first compound 0.000316 µM): 106% | viability, T/C (second compound 0.0316 µM, first compound 0.001 µM): 94.9% | viability, T/C [29]: 91.5% | viability, T/C [30]: 99.3% | viability, T/C [9]: 97.2% | viability, T/C [10]: 97.1% | viability, T/C (second compound 0.1 µM, first compound 0.000316 µM): 95% | viability, T/C (second compound 0.1 µM, first compound 0.001 µM): 88.6% | viability, T/C [31]: 87.6% | viability, T/C [32]: 85.3% | viability, T/C [13]: 96.1% | viability, T/C [14]: 96.7% | viability, T/C (second compound 0.316 µM, first compound 0.000316 µM): 109% | viability, T/C (second compound 0.316 µM, first compound 0.001 µM): 92% | viability, T/C [33]: 88.7% | viability, T/C [34]: 97.5% | viability, T/C [17]: 95.9% | viability, T/C [18]: 91.2% | viability, T/C (second compound 1 µM, first compound 0.000316 µM): 93.5% | viability, T/C (second compound 1 µM, first compound 0.001 µM): 80.2% | viability, T/C [35]: 87% | viability, T/C [36]: 87.3% | viability, T/C [21]: 109% | viability, T/C [22]: 85.2%
